The results in this text go back to patent US5945401A, “Peptide analogues of the 65KD isoform of human glutamic acid decarboxylase and uses thereof” (priority 1995, dated 1999).

Experiment [1] relates to T cells from transgenic NOD mice expressing the human DQβ1*0302 gene. The experiment in a line: Proliferation of T cells from transgenic NOD mice expressing human DQβ1*0302. The following applies: T cells from DQβ1*0302 transgenic NOD mice. It is filed as cell-based. From the text:
Type 1 diabetes is associated with the HLA DQβ1*0302 allele (Nepom and Erlich, Ann. Rev. Immunol. 9:493-525, 1991). Transgenic NOD mice expressing the human DQβ1*0302 gene were constructed. […] Thus, these peptides are recognized by T cells in the context of DQβ1*0302 and are additional peptides suitable for use in the present invention.

Experiment [2] concerns T cells from Type 1 diabetic patients and healthy controls. The experiment in a line: T cell proliferation assay with GAD 65 peptides (epitope mapping in patients, controls, co-twins). The conditions noted are these: patients compared with controls. The experiment is classed as cell-based, human. The protocol: FIG. 2 is a graph illustrating the T cell proliferative responses to peptides corresponding to various regions of GAD 65. Responses to peptides (5 μg/ml) in 5-7 Type 1 diabetic patients (solid bars) and 4-5 healthy controls (hatched bars) are expressed by the number of responders (y-axis). Background counts were normally between 600 and 3000 cpm, while positive wells had to exceed 1500 and 6000 cpm respective to background counts.
A major focus of research into autoimmunity is the identification of dominant epitopes on disease-associated auto-antigens recognized by autoreactive T cells. Immunodominant regions of the antigen GAD 65 have been identified in Type 1 diabetic patients (Lohmann et al., Lancet 343:1607-08, 1994; Atkinson et al., J Clin. Invest. 94:2125-2129, 1994). Within the subject invention, a detailed T cell epitope mapping of immunodominant regions in patients with Type 1 diabetes was performed. Two regions of GAD 65 were selected for decoding, representing the regions associated with the highest frequency of T cell responses in both Type 1 diabetics (amino acid residues 473-555 and 161-243) and control subjects (amino acid residues 161-243) (FIGS. 2 and 4). Nine diabetics who responded to region 473-555 were selected for further study of their response to 18 single peptides covering this region. […]

In the case of “GAD 65 native protein: 65 kD isoform of human glutamic acid decarboxylase, native protein”, the “proliferation of T cells” value in experiment [1] was “stimulated to proliferate”.

B1: region 161-243: region of GAD 65, residues 161-243, tested as overlapping peptides (peptide, UniProt Q05329 161-243, looked up, fragment)
chain: MHCQTTLKYAIKTGHPRYFNQLSTGLDMVGLAADWLTSTANTNMFTYEIAPVFVLLEYVTLKKMREIIGWPGGSGDGIFSPGG
modifications: tested as overlapping peptides
notes: region of GAD 65, residues 161-243, tested as overlapping peptides
As for B1, in experiment [2], the “recognition by T cells of Type 1 diabetic patients versus controls” value was “recognized by T cells from both normals and IDDM patients”.
